Test results as given in US6413736B1, “Astaxanthin over-producing strains of phaffia rhodozyma, methods for their cultivation, and their use in animal feeds” (Archer-Daniels-Midland Company, priority 1993, dated 2002).

Test system: Rainbow trout (Onchorhynchus mykiss, Shasta strain)
Test: Rainbow trout feeding trial, 84 days: whole or disrupted Phaffia yeast versus synthetic astaxanthin
Type: in vivo
Conditions: after 84 days of feeding, FIG. 10, Phaffia versus synthetic astaxanthin
Method: The Phaffia strain was grown in a 2,000 l fermentor in a manner substantially described as above. Cells were concentrated to 15-22% solids by centrifugation and dried. The feed was processed by Zeigler Bros. Inc., […], Pa. The novel Phaffia rhodozma or synthetic astaxanthin (5% Carophyll Pink, Hoffmann-LaRoche) were incorporated into their #1⁄8 Trout Grower pelleted food. Rainbow trout (Onchorhynchus mykiss, Shasta strain) were obtained from a local commercial trout grower. After acclimation to laboratory conditions and an experimental control diet, the trout were moved into separate experimental tanks (28 fish per tank). […] Collectively, the procedures and diets employed in the experiments were designed to result in near-optimal growth of trout at 10 C, the approximate temperature at which most commercially-produced trout are raised. […] The fish were stunned by a blow to the head; total length measured; weight after blotting dry determined; and then each fish was cut across the isthmus severing the ventral aorta. […] The carotenoids were then partitioned into hexanes:ethyl acetate (1:1 by volume) and the total carotenoid and astaxanthin content were determined as described above in the section entitled PIGMENT EXTRACTION AND ASTAXANTHIN ANALYSIS. […] The DMSO extracted carotenoids were then quantified as described above in the section entitled PIGMENT EXTRACTION AND ASTAXANTHIN ANALYSIS. […]

Q: How did the flesh carotenoid content turn out when CC1=C(/C=C/C(C)=C/C=C/C(C)=C/C=C/C=C(C)/C=C/C=C(C)/C=C/C2=C(C)C(=O)C(O)CC2(C)C)C(C)(C)CC(O)C1=O (stereo not drawn) [synthetic astaxanthin, 3,3′-dihydroxy-β,β-carotene-4,4′-dione] was run?
A: the same
